What was measured:
mouse CML LSC = experiment: In vivo treatment of transplanted CML mice in combination with NIL; conditions: 5 mg/kg i.v. 4 times a week plus NIL 50 mg/kg daily by gavage, 3 weeks
Procedure: FIGS. 24A-24I. […] BM cells from SCL-tTA/BCR-ABL mice (CD45.2) were transplanted into congenic B6 mice (CD45.1, n=40) to generate a cohort of mice with CML-like disease. Following confirmation of CML development at 4 weeks after transplantation, mice were randomly divided into 4 groups (n=10 each) and treated with CpG-miR-126 inhibitor (5 mg/kg i.v. 4 times a week), CpG-scrRNA (5 mg/kg, i.v. 4 times a week), CpG-miR-126 inhibitor plus NIL (50 mg/kg, daily by gavage), and CpG-scrRNA plus NIL for 3 weeks. Percentage of donor CML cells in peripheral blood (PB) (FIG. 24A), spleen (FIG. 24B) and bone marrow (BM) (FIG. 24C), numbers of donor CML LSK in spleen (FIG. 24D) and BM (FIG. 24E), and numbers of donor CML long term hematopoietic stem cells (LTHSC) in spleen (FIG. 24F) and BM (FIG. 24G) after 3 weeks' treatment were measured. […] The recipient mice were monitored for 16 weeks for CML cell engraftment in blood and leukemia development by WBC count. Frequency of LIC was quantified using L-Calc software (FIG. 24I). […]
BM cells from SCL-tTA/BCR-ABL mice (CD45.2) were transplanted into congenic B6 mice (CD45.1, n=40) to generate a cohort of mice with CML-like disease. […] The recipient mice were monitored for 16 weeks for CML cell engraftment in blood and leukemia development by WBC count. Frequency of LIC was quantified using L-Calc software (FIG. 24I). […]

[1] = system: Normal, cord blood, AML and CML CD34+ cells; experiment: Uptake of CpG-anti-miR126 inhibitor-Cy3 in primary CD34+ cells, Cy3 by flow cytometry; format: cell-based, human; conditions: 500 nM; primary patients' AML and CML CD34+ cells
Procedure: FIGS. 2A-2D are flow cytometry histograms showing results of uptake tests in normal, cord blood, acute myeloid leukemia (AML), and chronic myeloid leukemia (CML) CD34+ cells. Normal (NL), cord blood (CB), AML and CML34+ cells were cultured with CpG-scramble RNA (500 nM) and CpG-miR126 inhibitor-Cy3 (500 nm) for 16 hours. FIG. 2A is a histogram showing uptake in NL/CB cells with 600 CpG siRNA. FIG. 2B is a histogram showing NL/CB cells with 500 CpG-siRNA. FIG. 2C is a histogram showing uptake in AML cells. FIG. 2D is a histogram showing uptake in CML cells. Uptake was measured by Cy3 expression in these cells by flow cytometry.
Normal, cord blood, AML and CML CD34+ cells were cultured with CpG-anti-miR126 inhibitor-Cy3 or anti-miR126 inhibitor-Cy3 for 16 hours, and the uptake was measured by Cy3 expression in the cells by flow cytometry (FIGS. 2A-2D). All tested cells internalized CpG-anti-miR126-Cy3 but not the anti-miR126-Cy3 with high efficiency.
Normal, cord blood, AML and CML CD34+ cells were cultured with CpG-scramble RNA (500 nM) and CpG-anti-miR126 inhibitor-Cy3 (500 nM) for 24 hours, and then miR126 and RNU44 (ctrl) expression in these cells were analyzed by Q-RT-PCR (FIG. 5). The miR126 expression levels were normalized to RNU44 and calculated by using the comparative 2^−ΔΔCt method.

miR126 = miR126 expression in CML CD34+CD38+ committed and CD34+CD38- primitive progenitors by q-RT-PCR; format: cell-based, human; conditions: 500 nM
Procedure: CML CD34+CD38+ committed and CD34+CD38− primitive progenitors were cultured with CpG-scramble RNA (500 nM) or CpG-miR126 inhibitor (500 nM) for 36 hours and then miR126 and RNU44 (control) expression in these cells were analyzed by q-RT-PCR. The miR126 expression levels were normalized to RNU44 and calculated by using the comparative 2^−ΔΔCt method.
(§1) CML CD34+, CD34+CD38+ committed and CD34+CD38− primitive progenitors were cultured with CpG-scramble RNA (500 nM), CpG-anti-miR126 inhibitor (500 nM), CpG-scramble RNA (500 nM)+Nilotinib (NIL, 5 uM), and CpG-anti-miR126 inhibitor (500 nM)+NIL (5 uM) for 72 hours and then cell cycling and apoptosis were analyzed by EDU/DAPi and Annexin V/DAPi staining.

[2] = system: normal and CML CD34+CD38− primitive progenitors; experiment: Cell cycling of CD34+CD38- cells by EDU/DAPi staining; format: cell-based, human; conditions: 500 nM, 72 hours
Procedure: FIGS. 9A-9D are a series of cell sorting plots showing increased cell cycle in CD34+CD38− cells after knockdown of […]. Normal (NL; FIGS. 9A-9B) and CML human CD34+CD38− cells (FIGS. 9C-9D) were sorted and then cultured with 500 nm CpG-miR126 inh-Cy3 or CpG-SCR control for 72 hours, and then cell cycling was analyzed by EDU/DAPi staining.
as §1

Substance: 5′ G*G*T GCA TCG ATG CAGG*G*G* G*G (SEQ ID NO: 1) xxxxx mCmGmC mAmUmU mAmUmU mAmCmU mCmAmC mGmGmU mAmCmG mA (SEQ ID NO: 17) 3′ [CpG-anti-miR126]
- elimination of mouse CML LSC (mouse CML LSC): enhances elimination of mouse CML LSC
- internalization by primary cells [1]: quickly internalized
- reduction of miR126 expression (miR126): More than 90%
- cell cycling [2]: Increased cell cycling

From patent US11591596B2, “Compounds and compositions including phosphorothioated oligodeoxynucleotide, and methods of use thereof” (City of Hope, priority 2015, dated 2023)
